“And” between values parts separate entries of the source, which are not always exact repeats. Equal entries are not always repeated.
What was measured:
Test subjects = assay: Experimenting with higher daily dosages: psychostimulant effect in test subjects; format: in vivo, human
Procedure: While experimenting with forskolin in much higher daily dosages, the inventors discovered new and as yet undiscovered uses for forskolin and Coleus forskohli and its extracts. The novel effects became quite evident and noticeable upon administering 150 mg per day of forskolin in the form of a 20% Coleus forskohli extract. […] The dosages of forskolin that precipitate the best psychostimlant properties seem to be above 100 mg but can be below this level for some highly sensitive people.

[1] = tested on: overweight individuals who claimed to have a problem controlling their appetite; assay: Appetite suppression: self-rated level of appetite before and after administration (Example 2); format: in vivo, human
Procedure: The forskolin was administered three times per day for five days. Subjects were asked to evaluate the level of their appetite from a scale of 1 to 10 (10 being the greatest). […] Some of the subjects even reported that they felt no desire to eat within 30 minutes after administration even though before administration they felt “extremely hungry”.

individuals = assay: Psychostimulant effect: self-rated wakefulness/alertness before and one hour after administration (Example 1); format: in vivo, human; settings: scale of 1 to 10 (10 greatest), one value per subject, average of three days, 100 mg twice daily as 40% Coleus forskohli extract capsules
Procedure: The forskolin was administered one hour after waking and one hour before bedtime. Subjects were asked to evaluate their level of wakefulness/alertness on a scale of 1 to 10 (10 being the greatest) both before administration and one hour after administration. […] All of the subjects perceived an increase in their level of wakefulness/alertness both in the morning and in the evening. These times were chosen due to the fact that most people have a greater degree of sleepiness or a greater degree of having problems with mental alertness during these times of the day.

humans = assay: Test of forskolin as anorectic agent in humans; parameters: species or system human; settings: in vivo
Procedure: Because nearly all psychostimulants have been or are being used as extremely effective appetite suppressants, the inventors decided to test the hypothesis that forskolin would be an effective anorectic agent. […] This anorectic effect is dose dependent and works increasingly until the dosage of 500 mg per day of forskolin. Most tested individuals noticed the appetite suppression effects above 75 mg per day of forskolin; however, a few individuals noticed slight effects down to 30 mg per day.

[2] = scale of 1 to 10 (10 greatest), after dose, one value per subject, average of five days, 100 mg sixty minutes before meals, three times per day, 40% extract capsules
[3] = scale of 1 to 10 (10 greatest), before dose, one value per subject, average of five days, 100 mg sixty minutes before meals, three times per day, 40% extract capsules

C=C[C@@]1(C)CC(=O)[C@]2(O)[C@@]3(C)[C@@H](O)CCC(C)(C)[C@@H]3[C@H](O)[C@H](OC(C)=O)[C@@]2(C)O1 [forskolin, Forskolin]
dosages that precipitate the best psychostimulant properties (Test subjects; can be below this level for some highly sensitive people): above 100 mg
untoward central nervous system stimulating effects (jitteriness, nervousness, increased blood pressure, heart rate or respiratory rate) (Test subjects; human, in vivo): did not cause any untoward central nervous system stimulating effects
AB: level of appetite, Breakfast, After Administration [1, 2]: 5 and 3 and 4
AD: level of appetite, Dinner, After Administration [1, 2]: 8 and 3 and 5
AL: level of appetite, Lunch, After Administration [1, 2]: 7 and 3 and 5
BB: level of appetite, Breakfast, Before Administration [1, 3]: 6 and 8 and 4
BD: level of appetite, Dinner, Before Administration [1, 3]: 9 and 10 and 7
BL: level of appetite, Lunch, Before Administration [1, 3]: 9 and 10 and 8
time after administration within which some subjects felt no desire to eat ([1]; some of the subjects, "extremely hungry" before administration): ≤ 30 min
MBA: level of wakefulness/alertness, morning, before administration (individuals; baseline before dose): 3 (2×) and 2 and 7 (2×)
EBA: level of wakefulness/alertness, evening, before administration (individuals; before evening dose): 6 (2×) and 5 and 7 (2×)
EAA: level of wakefulness/alertness, evening, after administration (individuals; one hour after administration): 7 and 9 and 5 and 10 and 8
MAA: level of wakefulness/alertness, morning, after administration (individuals; one hour after administration): 5 (2×) and 7 and 8 and 10
dosage above which most tested individuals noticed the appetite suppression effects (humans): above 75 mg per day
dosage down to which a few individuals noticed slight appetite suppression effects (humans): ≥ 30 mg per day
dosage until which the dose dependent anorectic effect works increasingly (humans): ≤ 500 mg per day
